The values below come from patent US12403132B2, “Methods of treating bone marrow failure syndromes and compositions for use in the same” (The Board of Trustees of the Leland Stanford Junior …, priority 2020, dated 2025).

“And” between values parts separate entries of the source, which are not always exact repeats. Equal entries are not always repeated.

In one test the test system is Ter119+ erythroblasts. Kind of test: Ter119+ erythroblast expansion from murine Lin-Kit+ HSPCs (tet-shRPS19, RPL11+/lox). Format: cell-based, mouse. The protocol:
FIG. 8. NLK inhibition increases expansion of erythroid progenitors from human and murine models of DBA. Human cord blood CD34+ progenitors were transduced with lentivirus co-expressing GFP with shRNA against luciferase (shLuc), RPS19 (shRPS19) or RPL11 (shRPL11). After 36 hours cells GFP+ cells were differentiated in erythroid media in the presence or absence of 5 μM SD208 for 15 days. Cells were counted and assessed for cell surface expression of CD235. (a) The percentage of CD235+ cells was multiplied by the cell count and values were compared as a percentage of untreated controls. (b) Normalizing values relative to untreated RPS19-insufficiency progenitors facilitates direct comparison of erythropoiesis between untreated and SD208-treated cultures. (c) Approximately 3000 cells were removed from differentiating treatments at day 6 and NLK activity was assessed. Values were normalized to reflect a fold induction relative to untreated controls. (d) Lin-Kit+ hematopoietic progenitors were obtained from three mouse embryos expressing tetracycline-inducible shRNA against RPS19 at day E14.5 or three untreated mice, and thee mature RPL11^+/+ or three mature RPL11^+/lox mice treated with tamoxifen for eight weeks. Cells were grown in the presence or absence of doxycycline and/or SD208 for eight days prior to counting and assessing for ter119 surface expression. Values were expressed as a percentage relative to untreated controls (e) and directly comparing the effect of SD208 on erythropoiesis in ribosomal-insufficiency by expressing values relative to untreated ribosome-insufficient cultures (f). At day 5 approximately 3000 cells were assayed for NLK kinase assay (g). CD34+ HSPCs were isolated from three healthy control and three DBA patient mononuclear bone marrow aspirates by magnetic bead sorting and differentiated in the presence or absence of SD208 for 14 days. After counting the total cell population, the ratio of CD235+ erythroblasts was determined by flow cytometry and number of CD235+ erythroblasts calculated. This was expressed as a percentage of the average number of erythroid cells present in untreated healthy controls. (h) The direct effect of SD208 on erythroid expansion in DBA patient samples was calculated following normalization of untreated DBA patient samples as 1-fold, (i) At day five, 3000 cells from each of the differentiating cultures was analyzed for NLK activity by kinase assay and are expressed as a fold induction relative to untreated healthy controls.
FIG. 11. Metformin improves erythropoiesis in zebrafish model of DBA but not murine models. (Panel A, left portion) Murine fetal liver Kit+ progenitors expressing tetracycline-regulatable shRNA against RPS19 were cultured in the absence (grey columns) or presence (black columns) of doxycycline either alone, or treated with metformin. After 8 days, the number of ter119+ erythroblasts were calculated. (A right) RPL11+/lox mice were left untreated (grey columns) or treated (black columns) with tamoxifen for 5 weeks prior to isolation of bone marrow Lin-Kit+ progenitors. Progenitors were differentiated in the presence or absence of metformin for 8 days before assessing the number of Ter119+ erythroblasts. (Panel B) In conjunction with flow cytometry, cultures were subjected to qRT-PCR for NLK expression and (Panel C) kinase NLK kinase activity was assessed by in vitro kinase assay. […]

The subject of test [1] is NLK. The test is described as follows: NLK expression in differentiating human progenitors (qRT-PCR, Western blot). It is filed as cell-based. Also noted: reduction of endogenous NLK expression: concentration or dose not given beside the values.
For a further test, the system named is human NLK 3′UTR. The test is described as follows: Luciferase fused to human NLK 3′UTR in K562 cells. Format: cell-based. On the procedure:
FIG. 12. NLK 3′UTR facilitates metformin-mediated NLK suppression. (Panel A) K562 cells stabling expressing luciferase alone (top portion), luciferase expressed behind a minimal promoter and the NLK proximal promoter (2nd portion), luciferase immediately upstream of the human NLK 3′UTR (3rd portion) or luciferase with the SATB1 3′UTR (bottom portion) were grown in the presence of 0, 0.5, 5.0 or 50.0 mM of metformin for 72 hrs. Cell were pelleted and either processed for luciferase assay (left portion) or western blot analysis of endogenous NLK (upper right portion) or GAPDH (lower right portion). (Panel B) Luciferase immediately upstream of the human (upper), murine (middle) and zebrafish (lower) NLK 3′UTR were transiently transfected into human K562 (left) and cultured with indicated concentrations of metformin for 72 hrs. Lysates were assessed for luciferase activity and endogenous NLK and GAPDH protein expression by Western blotting. […] Statistics: two-tailed Student's t test, significant *P<0.05
FIG. 14. Metformin-mediated upregulation of miR-26a in human progenitors suppresses NLK expression. (Panel A) Human CD34+ (upper) and murine Lin-Kit+ (lower) progenitors were differentiated for 8 days in the presence or absence of metformin and the levels of indicated miRNAs were assessed by qRT-PCR. […] After lysis, luciferase activity was determined and endogenous NLK and GAPDH protein expression was analyzed by Western blot. […]
The NLK minimal promoter (1019 5′ nucleotides) and or NLK 3′UTR (1885 3′ nucleotides) were cloned upstream, or downstream respectively, of firefly luciferase and transfected into K562 cells. Transfection efficiency was normalized by RFP expression and firefly luciferase activity determined by Luciferase Assay Reagent II (LAR II) from Dual-Luciferase® Reporter (DLR™) Assay System (Promega). Luminescence was assessed using a Synergy™ H1 hybrid multi-mode microplate reader (BioTek®). […]

Test [2] has as its system NLK. Kind of test: NLK expression and NLK activity in murine progenitors. Format: cell-based, mouse. The note with it: control, RPS19- or RPL11-insufficient mice, metformin. From the text:
(§1) FIG. 11. […] Statistics: two-tailed Student's t test, significant *P<0.05

For test [3], the system named is zebrafish (Danio rerio) embryos. The test is described as follows: Zebrafish rps19 morpholino model, o-dianisidine hemoglobin staining. Format: in vivo.
Description: as §1

Setting [4] is: ginsenoside Rb1, metformin, alone and combined.

In the case of `Fc1ccc(Cl)cc1-c1nc(Nc2ccncc2)c2nccnc2n1` [SD208], in the test with Ter119+ erythroblasts (RPL11+/lox bone marrow HSPCs of three mice, SD208, 8 days, 31.2, 26.4, 18.6% without SD208), the “erythropoiesis, % of controls” value is 57.3% and 56.8% and 50.3%. Besides, the results for the “fold increase of erythropoiesis in response to SD208” value in the test with Ter119+ erythroblasts (murine RPL11-insufficiency) and in the test with Ter119+ erythroblasts (murine RPS19-insufficiency) were 2.29 fold and 3.88 fold, respectively. For the same compound, the “Ter119+ erythroblasts, % of populations differentiated without doxycycline” value in the test on Ter119+ erythroblasts (tet-shRPS19 fetal liver HSPCs of three mice, doxycycline + SD208, 8 days, 24.3, 20.3, 18.5% without SD208) is 83.2% and 81.1% and 76.6%.
Take `CC(C)=CCC[C@](C)(O[C@@H]1O[C@H](CO[C@@H]2O[C@H](CO)[C@@H](O)[C@H](O)[C@H]2O)[C@@H](O)[C@H](O)[C@H]1O)[C@H]1CC[C@]2(C)[C@@H]1[C@H](O)C[C@@H]1[C@@]3(C)CC[C@H](O[C@@H]4O[C@H](CO)[C@@H](O)[C@H](O)[C@H]4O[C@@H]4O[C@H](CO)[C@@H](O)[C@H](O)[C@H]4O)C(C)(C)[C@@H]3CC[C@]12C` [ginsenoside Rb1]: the “reduction of NLK protein” value in the test on NLK [1] (differentiating HSPCs, 5 mM) was found to be 31.5%. Moreover, the “suppression of NLK expression” value in the test on NLK [1] (setting [4]) worked out at 34.6%; in the test on NLK [1] (miRNA species transduced into differentiating HSPCs, ginsenoside Rb1 for comparison), 34.6%. Moreover, the “reduction of endogenous NLK expression” value in the test on NLK [1] (ginsenoside Rb1-treated differentiating HSPCs (miRNA sponge experiment)) is given as 44.8%.
In the case of `CN(C)C(=N)N=C(N)N` [metformin], in the test with NLK [1] (setting [4]), the “suppression of NLK expression” value turned out to be 59.4%. Besides, the “reduction of luciferase activity (wild-type human NLK 3′UTR)” value with human NLK 3′UTR (K562, miRNA mimetics or metformin, 72 hrs) amounted to 72.5%. Moreover, the “decrease of luciferase (NLK 3′UTR fusion)” value in the test on human NLK 3′UTR (stable K562, 50 mM metformin, 72 hrs) is reported as 67.5%. The “decrease of luciferase activity, human 3′UTR” value in the test on human NLK 3′UTR (transient transfection in K562, metformin 72 hrs) worked out at 65.4%. In the test on NLK [2], the “impact on NLK activity” value is on record as “no impact” and the “impact on NLK expression” value is listed as “no impact”. In the test on Ter119+ erythroblasts (murine RPS19- or RPL11-insufficiency, metformin, 8 days), the “rescue of Ter119+ erythroblast expansion” value was “did not rescue”. Besides, the heart conditions result in test [3] (20 mM metformin) is “persisted”. Further, the “O'dianisidine (hemoglobin) staining” value in test [3] (20 mM metformin from 4 to 5 hpf, day 3) is listed as “dramatically restored”.
